Assay results from patent US20240217936A1, “5-BENZY[…] AND PREPARATION METHOD THEREFOR AND USE THEREOF” (WEST CHINA HOSPITAL, SICHUAN UNIVERSITY, priority 2021, published 2024).
Structures can show the parent of a compound that is named as a salt.

Key:
Male SD rats [1] = assay: Hypnotic effect after tail vein injection (loss of righting reflex); format: in vivo, rat; conditions: for ED50: Rattus norvegicus, 50% of the dose for the disappearance of righting reflex in rats, tail vein injection; for Onset time: tail vein injection of 2× ED50, loss of righting reflex; for Onset time / Duration: rats; for Duration: tail vein injection of 2× ED50, until recovery of righting reflex
Method: Male SD rats, weighing 250-300 g, were randomly divided into groups, with 10 rats in each group. […] The onset times and the duration of hypnosis were recorded.

Male SD rats [2] = assay: Blood pressure change after tail vein injection (mean arterial pressure); conditions: dosage 2× ED50, injection within 15 seconds, 60 min recording, rats under isoflurane
Method: Male SD rats weighing 250-300 g were randomly divided into groups, with 10 rats in each group. General anesthesia was maintained by inhaling isoflurane. By intubating via femoral artery, blood pressure was monitored using the BL-420N biological signal collection and analysis system. minutes after blood pressure stabilization, the baseline mean arterial pressure (MAP0) was measured. Subsequently, the physiological saline solution of each test drug was injected via the tail vein (the dosage of each drug was the same as that in Experiment example 2, with a unified injection […] volume of 1 mL). […] All prodrug molecules were injected within 15 seconds. After injection of each drug, the change in blood pressure was continuously recorded for 60 min. […] The difference MAPΔ+ between the baseline mean arterial pressure (MAP0) and the highest mean arterial pressure (MAPmax) during the 60 min measurement time was calculated; the difference MAPΔ− between the baseline mean arterial pressure (MAP0) and the lowest mean arterial pressure (MAPmin) during the 60 min measurement time was also obtained; both of the difference values were used to calculate the maximum increase rate of mean arterial pressure +Δ%=MAPΔ+/MAP0*100% and the maximum decrease rate of mean arterial pressure −Δ%=MAPΔ−/MAP0*100%, respectively. The maximum increase rate of mean arterial pressure +Δ% and the maximum decrease rate −Δ% reflect the degree of blood pressure change that the body experienced after administration. The larger the value, the greater the blood pressure change that the body experienced.

[3] = Degradation of prodrug in rat plasma (release of dexmedetomidine, HPLC); format: in vitro ADME; conditions: 37° C.
Method: The test prodrug was formulated as a 1 mg/mL of physiological saline solution, and then 100 μL of the prodrug solution was added to 900 μL of rat plasma. The test solution was vortexed for 30 s before incubation at 37° C. 50 μL of drug-containing plasma was collected at 0.5 min, 1 min, 2 min, 3 min, 5 min, 10 min, 15 min, 20 min, 30 min, and 60 min, respectively, to which was immediately added 150 μL of acetonitrile to terminate the enzymatic reaction, followed by adding the solution of internal standard telmisartan in methanol (30 μL, 20 μg/mL). Then, the resultant solution was centrifuged at 20000 rpm and 4° C. for 10 min. 100 μL of the supernatant was injected for detection by HPLC, and the concentration of dexmedetomidine was determined by an internal standard method. The degradation rate of the prodrug was calculated based on the concentration of dexmedetomidine. The chromatographic conditions are: Swell XDB C18 column (150 mm×4.6 mm, 5 μm); column temperature 30° C.; using gradient elution (see Table 1), mobile phase A: methanol, mobile phase B: 0.1% trifluoroacetic acid in water, and mobile phase C: acetonitrile; detection wavelength: 220 nm; flow rate: 1.0 mL/min; injection volume: 30 μL; retention time: 4.7 minutes for dexmedetomidine and 6.7 minutes for internal standard telmisartan. The linear range of dexmedetomidine: 2.5-100 μg/mL. Instruments: Waters 2695 high-performance liquid chromatograph, Waters 2996 photodiode array detector.

SMILES	ED50 (Male SD rats [1]) [mg/kg]	Onset time (Male SD rats [1]) [min]	Duration (Male SD rats [1]) [min]	+Δ % (The maximum increase rate of blood pressure) (Male SD rats [2])	−Δ % (The maximum decrease rate of blood pressure) (Male SD rats [2]) [%]	Degradation rate of prodrug % ([3]; 0.5 min) [%]	Degradation rate of prodrug % ([3]; 1 min) [%]	Degradation rate of prodrug % ([3]; 2 min) [%]	Degradation rate of prodrug % ([3]; 3 min) [%]	Degradation rate of prodrug % ([3]; 5 min) [%]	Degradation rate of prodrug % ([3]; 10 min) [%]	Degradation rate of prodrug % ([3]; 15 min) [%]
Cc1cccc([C@H](C)c2cn(COC(=O)C(C)C)cn2)c1C [Compound 2-HCl]	0.043	1.1 ± 0.2	63 ± 15	*19 ± 11%	32 ± 5	35	57	87	94	100	–	–
Cc1cccc([C@H](C)c2cn(COC(=O)C(C)(C)C)cn2)c1C [Compound 3-HCl]	0.059	2.6 ± 1.1	50 ± 10	*13 ± 6%	41 ± 8	36	73	87	96	100	–	–
Cc1cccc([C@H](C)c2cn(C(=O)OC(C)C)cn2)c1C [Compound 5-HCl]	0.037	3.7 ± 1.3	61 ± 15	*18 ± 6%	35 ± 5	36	47	52	67	89	98	100
CCOC(=O)OCn1cnc([C@@H](C)c2cccc(C)c2C)c1 [Compound 6-HCl]	0.03	2.1 ± 1.1	45 ± 8	*23 ± 9%	36 ± 6	21	47	76	89	96	100	–
Cc1cccc([C@H](C)c2cn(COC(=O)OC(C)C)cn2)c1C [Compound 7-HCl]	0.036	4.6 ± 1.3	39 ± 11	*17 ± 8%	37 ± 8	22	46	67	88	97	100	–
CCCC(=O)OCn1cnc([C@@H](C)c2cccc(C)c2C)c1 [Compound 8-HCl]	0.024	4.1 ± 2.4	31 ± 13	*18 ± 8%	31 ± 7	76	89	97	100	–	–	–
CCC(=O)OCn1cnc([C@@H](C)c2cccc(C)c2C)c1 [Compound 10-HCl]	0.028	2.3 ± 1.1	48 ± 12	31 ± 7%	40 ± 8	57	82	85	97	100	–	–
